Assay results: patent US20250084095A1, “Aminopyrimidine Derivatives as Cyclin-Dependent Kinase Inhibitors” (Accutar Biotechnology Inc., priority 2023, published 2025)

Experiments:
[1] = test system: Phospho-Rb (Ser807/811) in SW1573-CDK4 KO cells; experiment: Phospho-Rb expression inhibition in SW1573-CDK4 KO cells quantified by in cell Western; assay type: cell-based; conditions: Homo sapiens, 24 hours, read-out: SW1573 CDK4 KO pRb IC50
Experimental: (§1) Parental SW1573 cells were obtained from the American Type Culture Collection (ATCC). CDK4 or CDK6 gene in […] cells was knocked out using the CRISPR-Cas9 technology. First, gRNA complex of CDK4 or CDK6 was prepared with Alt-R CRISPR-Cas9 tracrRNA and crRNA CDK4 (5′-[…]-3′ (SEQ ID NO: 4)) or CDK6 (5′-[…]-3′ (SEQ ID NO. 5)) (IDT-Integrated DNA Technologies), and then ribonucleoprotein (RNP) complex of CDK4 or CDK6 was prepared with respective gRNA complex and Alt-R S.p. Cas9 Nuclease V3 (IDT-Integrated DNA Technologies). Next, 5×10^4/10 μL SWJ1573 cells were electroporated with the CDK4 or CDK6 RNP complex and Alt-R Cas9 Electroporation Enhancer using Neon Transfection System (Thermo Fisher). Cells were then plated in a 96-well plate to select single clones for validation of CDK4 or CDK6 knockout by western blot analysis.
(§2) MCF7 cells were obtained from American Type Culture Collection (ATCC, HTB-22). SW1573-CDK6 KO and SW1573-CDK4 KO cells were generated by the CRISPR-Cas9 technology. All cells were plated in 96-well plates (VWR #10062-900, or Corning #3904) in 90 uL culture medium at a density of 20,000 cells/well in the respective growth medium containing 10% FBS and 1% Penicillin Streptomycin, and then incubated at 37° C. overnight. The following day, the test compound was administered to the cells by using 1000× compound stock solution prepared in DMSO at various concentrations. 1000× compound stock solution was first diluted in culturing medium to 10×, then 10 uL compound medium was added to each well in the cell plates. After administration of the compound, the cells were then incubated at 37° C. for 24 hours. Upon completion, the cells were washed with PBS briefly. 150 uL/well of 4% formaldehyde was added and the plates were incubated at room temperature for 20 mins. The cells were washed with PBS briefly, and permeabilized with 150 uL/well of ice cold 100% methanol for 10 mins. The cells were washed with PBS briefly and blocked with 100 uL/well LI-COR blocking buffer for 1 hr at room temperature with gentle shaking. The cells were incubated overnight at 4° C. with 50 uL primary antibody rabbit anti-Phospho-Rb (Ser807/811) (1: 500, Cell Signaling, #8516) and anti-Rb (1:200, Santa Cruz, sc-73598) diluted in Intercept Blocking Buffer (LI-COR, #927-60001) containing 0.1% Tween 20. The next day, the cells were washed with 200 uL PBS containing 0.1% Tween 20, 5×5 mins at room temperature with gentle shaking, and incubated with 50 uL secondary antibody, IRDye® 800CW Goat anti-Rabbit IgG (1:1000, LI-COR, #926-32211) and IRDye®680RD Goat anti-Mouse IgG (1:1000, LI-COR, #926-68070), in LI-COR blocking buffer with 0.2% Tween 20 for 1 hr at room temperature with gentle shaking. The cells were washed with 200 uL PBS containing 0.1% Tween 20, 5×5 mins at room temperature with gentle shaking. The cells were washed with PBS for 5 mins. 100 uL fresh PBS was added to each well and the plates were imaged on a LI-COR Odyssey CLX plate reader.

[2] = test system: Phospho-Rb (Ser807/811) in SW1573-CDK6 KO cells; experiment: Phospho-Rb expression inhibition in SW1573-CDK6 KO cells quantified by in cell Western; assay type: cell-based; conditions: Homo sapiens, 24 hours, read-out: SW1573 CDK6 KO pRb IC50
Experimental: as §1, §2

SMILES	IC50 [1]	IC50 [2]
Cc1c(C(C)(C)O)cnc2c(F)cc(-c3nc(N[C@@H]4C[C@H]5CO[C@H](O5)[C@H]4O)ncc3Cl)cc12 [Compound 257, (1S,3R,4S,5R)-3-((5-chloro-4-(8-fluoro-3-(2-hydroxypropan-2-yl)-4-methylquinolin-6-yl)pyrimidin-2-yl)amino)-6,8-dioxabicyclo[3.2.1]octan-4-ol]	150 to 1000 nM	≤ 40 nM
CCn1cc(C(C)C)c2sc(-c3nc(N[C@@H]4C[C@H]5CO[C@H](O5)[C@H]4O)ncc3Cl)c(C)c2c1=O [Compound 230, 5-ethyl-2-(5-chloro-2-(((1S,3R,4S,5R)-4-hydroxy-6,8-dioxabicyclo[3.2.1]octan-3-yl)amino)pyrimidin-4-yl)-7-isopropyl-3-methylthieno[3,2-c]pyridin-4(5H)-one]	150 to 1000 nM	≤ 40 nM
CC(C)n1c(N2C(=O)OC[C@@H]2C)nc2c(F)cc(-c3nc(N[C@@H]4C[C@H]5CO[C@H](O5)[C@H]4O)ncc3Cl)cc21 [Compound 298, (S)-3-(6-(5-chloro-2-(((1S,3R,4S,5R)-4-hydroxy-6,8-dioxabicyclo[3.2.1]octan-3-yl)amino)pyrimidin-4-yl)-4-fluoro-1-isopropyl-1H-benzo[d]imidazol-2-yl)-4-methyloxazolidin-2-one]	> 1000 nM	40 to 150 nM
CC(C)n1c(CN2CC[C@@H](F)C2)c(F)c(=O)c2ccc(-c3nc(N[C@@H]4C[C@H]5CO[C@H](O5)[C@H]4O)ncc3F)cc21 [Compound 202, 3-fluoro-7-(5-fluoro-2-(((1S,3R,4S,5R)-4-hydroxy-6,8-dioxabicyclo[3.2.1]octan-3-yl)amino)pyrimidin-4-yl)-2-(((R)-3-fluoropyrrolidin-1-yl)methyl)-1-isopropylquinolin-4(1H)-one]	> 1000 nM	40 to 150 nM
CC(C)n1c([C@@H]2CCOC2)nc2c(F)cc(-c3nc(N[C@@H]4C[C@H]5CO[C@H](O5)[C@H]4O)ncc3F)cc21 [Compound 270, (1S,3R,4S,5R)-3-((5-fluoro-4-(4-fluoro-1-isopropyl-2-((S)-tetrahydrofuran-3-yl)-1H-benzo[d]imidazol-6-yl)pyrimidin-2-yl)amino)-6,8-dioxabicyclo[3.2.1]octan-4-ol]	> 1000 nM	40 to 150 nM
CC(C)n1c([C@H]2CCOC2)nc2c(F)cc(-c3nc(N[C@@H]4C[C@H]5CO[C@H](O5)[C@H]4O)ncc3F)cc21 [Compound 269, (1S,3R,4S,5R)-3-((5-fluoro-4-(4-fluoro-1-isopropyl-2-((R)-tetrahydrofuran-3-yl)-1H-benzo[d]imidazol-6-yl)pyrimidin-2-yl)amino)-6,8-dioxabicyclo[3.2.1]octan-4-ol]	> 1000 nM	150 to 1000 nM
CC(C)n1c([C@@H]2CCOC2)nc2c(F)cc(-c3nc(N[C@@H]4C[C@H]5CO[C@H](O5)[C@H]4O)ncc3Cl)cc21 [Compound 268, (1S,3R,4S,5R)-3-((5-chloro-4-(4-fluoro-1-isopropyl-2-((S)-tetrahydrofuran-3-yl)-1H-benzo[d]imidazol-6-yl)pyrimidin-2-yl)amino)-6,8-dioxabicyclo[3.2.1]octan-4-ol]	> 1000 nM	40 to 150 nM
Cc1c(CN2CCC2)n(C(C)C)c2cc(-c3nc(N[C@@H]4C[C@H]5CO[C@H](O5)[C@H]4O)ncc3F)ccc2c1=O [Compound 196, 2-(azetidin-1-ylmethyl)-7-(5-fluoro-2-(((1S,3R,4S,5R)-4-hydroxy-6,8-dioxabicyclo[3.2.1]octan-3-yl)amino)pyrimidin-4-yl)-1-isopropyl-3-methylquinolin-4(1H)-one]	> 1000 nM	40 to 150 nM
CC(C)n1c(CN2[C@@H](C)COC[C@@H]2C)c(C(F)F)c(=O)c2ccc(-c3nc(N[C@@H]4C[C@H]5CO[C@H](O5)[C@H]4O)ncc3Cl)cc21 [Compound 204, 7-(5-chloro-2-(((1S,3R,4S,5R)-4-hydroxy-6,8-dioxabicyclo[3.2.1]octan-3-yl)amino)pyrimidin-4-yl)-3-(difluoromethyl)-2-(((3S,5S)-3,5-dimethylmorpholino)methyl)-1-isopropylquinolin-4(1H)-one]	> 1000 nM	40 to 150 nM
CC(C)n1c([C@@H]2CC2(F)F)nc2c(F)cc(-c3nc(N[C@@H]4C[C@H]5CO[C@H](O5)[C@H]4O)ncc3Cl)cc21 [Compound 216, (1S,3R,4S,5R)-3-((5-chloro-4-(2-((S)-2,2-difluorocyclopropyl)-4-fluoro-1-isopropyl-1H-benzo[d]imidazol-6-yl)pyrimidin-2-yl)amino)-6,8-dioxabicyclo[3.2.1]octan-4-ol]	150 to 1000 nM	≤ 40 nM
CC(C)(O)c1cnc2c(F)cc(-c3nc(N[C@@H]4C[C@H]5CO[C@H](O5)[C@H]4O)ncc3Cl)cc2c1Cl [Compound 252, (1S,3R,4S,5R)-3-((5-chloro-4-(4-chloro-8-fluoro-3-(2-hydroxypropan-2-yl)quinolin-6-yl)pyrimidin-2-yl)amino)-6,8-dioxabicyclo[3.2.1]octan-4-ol]	150 to 1000 nM	≤ 40 nM
COC(=O)N1CC[C@@H](c2nc3c(F)cc(-c4nc(N[C@@H]5C[C@H]6CO[C@H](O6)[C@H]5O)ncc4F)cc3n2C(C)C)C1 [Compound 265, methyl (R)-3-(4-fluoro-6-(5-fluoro-2-(((1S,3R,4S,5R)-4-hydroxy-6,8-dioxabicyclo[3.2.1]octan-3-yl)amino)pyrimidin-4-yl)-1-isopropyl-1H-benzo[d]imidazol-2-yl)pyrrolidine-1-carboxylate]	> 1000 nM	40 to 150 nM
